Source: ChEMBL document CHEMBL4334431, “Gramicidin S-inspired antimicrobial cyclodextrin to disrupt gram-negative and gram-positive bacterial membranes” (Medchemcomm, 2019)
Converted amounts (≈) assume the structure as drawn.

Legend:
Escherichia coli [1] = experiment: Antimicrobial activity against […] at sub-MIC treated by resistant development assay; format: functional; conditions: K-12 substr. W3110
Pseudomonas aeruginosa [2] = experiment: Antibacterial activity against carbapenem-reistant Pseudomonas aeruginosa PAO1 assessed as bacterial growth inhibition after 20 hrs by liquid microdilution method; format: functional; conditions: PAO1, 20 h
Escherichia coli [3] = experiment: Antimicrobial activity against carbapenem-resistant Escherichia coli assessed as bacterial growth inhibition after 20 hrs by liquid microdilution method; format: functional
Bacillus subtilis = experiment: Antibacterial activity against Bacillus subtilis 168 assessed as bacterial growth inhibition after 20 hrs by liquid microdilution method; format: functional; conditions: Bacillus subtilis, 168, 20 h
[4] = Partition coefficient, log P of compound; format: physicochemical; conditions: octanol/water
Pseudomonas aeruginosa [5] = experiment: Antibacterial activity against Pseudomonas aeruginosa PAO1 assessed as bacterial growth inhibition after 20 hrs by liquid microdilution method; format: functional; conditions: PAO1, 20 h
Salmonella typhimurium = experiment: Antibacterial activity against Salmonella typhimurium LT2 assessed as bacterial growth inhibition after 20 hrs by liquid microdilution method; format: functional, Salmonella enterica subsp. enterica serovar Typhimurium; conditions: Salmonella enterica, LT2, 20 h
Escherichia coli [6] = experiment: Antimicrobial activity against ESBL-producing Escherichia coli assessed as bacterial growth inhibition after 20 hrs by liquid microdilution method; format: functional
[7] = Haemolytic activity in rabbit RBCs at 50 uM relative to control; format: ADME, cell-based, Oryctolagus cuniculus, Erythrocyte; conditions: rabbit red blood cells (erythrocytes), read-out: Activity
Erythrocyte = experiment: Haemolytic activity in rabbit RBCs at 10 times MIC; format: ADME, cell-based, Oryctolagus cuniculus
Escherichia coli [8] = experiment: Antibacterial activity against Escherichia coli K12 W3110 assessed as bacterial growth inhibition after 20 hrs by liquid microdilution method; format: functional; conditions: K-12 substr. W3110, 20 h
Staphylococcus aureus [9] = experiment: Antibacterial activity against Staphylococcus aureus FDA 209P assessed as bacterial growth inhibition after 20 hrs by liquid microdilution method; format: functional
Staphylococcus aureus [10] = experiment: Antibacterial activity against Staphylococcus aureus FDA 209P at sub-MIC treated over 11 serial passages by resistant development assay; format: functional

CCC(=O)O[C@@H]1[C@@H](OC(=O)CC)[C@H]2O[C@H]3[C@H](OC(=O)CC)[C@@H](OC(=O)CC)[C@@H](O[C@H]4[C@H](OC(=O)CC)[C@@H](OC(=O)CC)[C@@H](O[C@H]5[C@H](OC(=O)CC)[C@@H](OC(=O)CC)[C@@H](O[C@H]6[C@H](OC(=O)CC)[C@@H](OC(=O)CC)[C@@H](O[C@H]7[C@H](OC(=O)CC)[C@@H](OC(=O)CC)[C@@H](O[C@@H]1[C@@H](Cn1cc(CN)nn1)O2)O[C@@H]7Cn1cc(CN)nn1)O[C@@H]6Cn1cc(CN)nn1)O[C@@H]5Cn1cc(CN)nn1)O[C@@H]4Cn1cc(CN)nn1)O[C@@H]3Cn1cc(CN)nn1 showed an MIC (Escherichia coli [1]) of 3 to 6 µM (≈ 6.38 to 12.8 µg/mL), an MIC (Pseudomonas aeruginosa [2]) of 5 µM (≈ 10.6 µg/mL) and an MIC (Escherichia coli [3]) of 5 µM (≈ 10.6 µg/mL). It also gave an MIC (Bacillus subtilis) of 3 µM (≈ 6.38 µg/mL), a logP [4] of -0.89 and an MIC (Pseudomonas aeruginosa [5]) of 3 µM (≈ 6.38 µg/mL). The MIC (Salmonella typhimurium) was 6 µM (≈ 12.8 µg/mL), the MIC (Escherichia coli [6]) was 5 µM (≈ 10.6 µg/mL) and the hemolysis at 50 µM [7] was 3%. The Activity (Erythrocyte) was “Non-Toxic”, the MIC (Escherichia coli [8]) was 3 µM (≈ 6.38 µg/mL) and the MIC (Staphylococcus aureus [9]) was 6 µM (≈ 12.8 µg/mL). For the same molecule, the MIC (Staphylococcus aureus [10]) was 6 µM (≈ 12.8 µg/mL).
